The values below come from ChEMBL document CHEMBL5528054, “Novel Cocrystal Structures of Peptide Antagonists Bound to the Human Melanocortin Receptor 4 Unveil Unexplored Grounds for Structure-Based Drug Design” (J Med Chem, 2024).

In this test the target is Melanocortin receptor 4 (Homo sapiens, UniProt P32245). The conditions noted are these: HEK293, filed as antagonist, time 1.0 hrs.
Melanocortin receptor 4, sequence (P32245 whole entry): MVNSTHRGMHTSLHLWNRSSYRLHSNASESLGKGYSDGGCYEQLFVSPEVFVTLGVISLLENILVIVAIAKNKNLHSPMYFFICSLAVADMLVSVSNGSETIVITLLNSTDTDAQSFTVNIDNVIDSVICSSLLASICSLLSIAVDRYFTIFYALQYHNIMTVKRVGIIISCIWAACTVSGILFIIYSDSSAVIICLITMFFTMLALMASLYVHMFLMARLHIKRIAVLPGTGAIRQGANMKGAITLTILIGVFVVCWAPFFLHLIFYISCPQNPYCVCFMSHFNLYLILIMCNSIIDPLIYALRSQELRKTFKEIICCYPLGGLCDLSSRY

With `CCCC[C@H](NC(C)=O)C(=O)N[C@H]1CC(=O)NCCCC[C@@H](C(N)=O)NC(=O)[C@@H](Cc2ccccc2)NC(=O)[C@H](CCCN=C(N)N)NC(=O)[C@@H](Cc2ccc3ccccc3c2)NC(=O)[C@@H]2CCCN2C1=O`, the Tm came out at 62.6 °C.
